This note sets out measurements from the supplement of paper PMC11208160.
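Further: IS621 recombinase and bridge RNA in Escherichia coli cells.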

A short description of the data set: recombinant barcode read abundance after kanamycin selection (control-corrected) (log10(CPM+1)); higher = more efficient recombination; sequences stand for … in AGTGCAGAGAAAATCGGCCAGTTTTCTCTGCCTGCAGTCCGCATGCCGT…AGATTTATGCAGCGGACTGCCTTTCTCCCAAAGTGATAAACCGGACAGTATCATGGACCGGTTTTCCCGGTAATCCGTATTTGCAAGGTTGGTTTCACT; site = the 11-nt target. In a few lines: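 Values are log10(CPM+1) from a pooled E. coli screen of targets paired with IS621 bridge RNA target-binding loops. Recombination efficiency here means counts per million of recombinant-junction barcodes, averaged and control-corrected. Plates were chloramphenicol/ampicillin LB agar for the control and chloramphenicol/ampicillin/kanamycin with 0.1 mM IPTG, two replicates each.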
With “TAGCACCCTTGGGTTCTAACCTGTTGCCT (site TAGCACCCTTG)”, the “recombinant barcode read abundance (log10)” value was 0.144.

“TAGCATACTTGGGTTCTAACCTGTTGCCT (site TAGCATACTAG)”: the “recombinant barcode read abundance (log10)” value was 1.37.

For the sequence “TAGCATACTTGGGTTCTAACCTGTTGCCT (site TAGCATACTCG)”, the “recombinant barcode read abundance (log10)” value was 0.112.

Take “TAGCATACTTGGGTTCTAACCTGTTGCCT (site TAGCATACTGG)”: the “recombinant barcode read abundance (log10)” value was 0.308.

As for “TAGCATACTTGGGTTCTAACCTGTTGCCT (site TAGCATACTTG)”, the “recombinant barcode read abundance (log10)” value was 0.0681.

As to “TAGCCCACTTGGGTTCTAACCTGTTGCGG (site TAGCACACTCC)”, the “recombinant barcode read abundance (log10)” value stood at 0.0811.

For “TAGCCCACTTGGGTTCTAACCTGTTGCGG (site TAGCCCACTCC)”, the “recombinant barcode read abundance (log10)” value is 1.35.

Take “TAGCCCACTTGGGTTCTAACCTGTTGCGG (site TAGCGCACTCC)”: the “recombinant barcode read abundance (log10)” value came to 0.0188.

For the sequence “TAGCCCACTTGGGTTCTAACCTGTTGCGG (site TAGCTCACTCC)”, the “recombinant barcode read abundance (log10)” value amounted to 0.393.

Turning to “TAGCCTACTTGGGTTCTAACCTGTTGCCG (site TAGCCTACTCG)”, the “recombinant barcode read abundance (log10)” value stood at 0.725.

Turning to “TAGCCTACTTGGGTTCTAACCTGTTGCCG (site TAGGCTCCTCG)”, the “recombinant barcode read abundance (log10)” value amounted to 0.0184.

On to “TAGCCTACTTGGGTTCTAACCTGTTGCGA (site TAGCCTACTAC)”, for which the “recombinant barcode read abundance (log10)” value was found to be 0.0304.

On to “TAGCCTACTTGGGTTCTAACCTGTTGCGA (site TAGCCTACTCC)”, for which the “recombinant barcode read abundance (log10)” value was determined as 0.416.

As for “TAGCCTACTTGGGTTCTAACCTGTTGCGA (site TAGCCTACTGC)”, the “recombinant barcode read abundance (log10)” value was 0.00843.

Consider “TAGCCTACTTGGGTTCTAACCTGTTGCGA (site TAGCCTACTTC)”, for which the “recombinant barcode read abundance (log10)” value amounted to 1.2.

Turning to “TAGCCTACTTGGGTTCTAACCTGTTGCGC (site TAGCCTACTAC)”, the “recombinant barcode read abundance (log10)” value was 0.0597.

Turning to “TAGCCTACTTGGGTTCTAACCTGTTGCGC (site TAGCCTACTCC)”, the “recombinant barcode read abundance (log10)” value stood at 0.0856.

Regarding “TAGCCTACTTGGGTTCTAACCTGTTGCGC (site TAGCCTACTGC)”, the “recombinant barcode read abundance (log10)” value worked out at 1.84.

Regarding “TAGCCTACTTGGGTTCTAACCTGTTGCGC (site TAGCCTACTTC)”, the “recombinant barcode read abundance (log10)” value was found to be 0.0255.

For “TAGCCTACTTGGGTTCTAACCTGTTGCGT (site TAGCCTACTAC)”, the “recombinant barcode read abundance (log10)” value is 0.581.

In the case of “TAGCCTACTTGGGTTCTAACCTGTTGCGT (site TAGCCTACTCC)”, the “recombinant barcode read abundance (log10)” value is 0.0265.

As to “TAGCCTACTTGGGTTCTAACCTGTTGCGT (site TAGCCTACTGC)”, the “recombinant barcode read abundance (log10)” value was 0.0357.

Take “TAGCCTACTTGGGTTCTAACCTGTTGCGT (site TAGCCTACTTC)”: the “recombinant barcode read abundance (log10)” value worked out at 0.

“TAGCCTTCTTGGGTTCTAACCTGTTGCAG (site TAGCCTTCTCT)”: the “recombinant barcode read abundance (log10)” value was 1.14.

As for “TAGCCTTCTTGGGTTCTAACCTGTTGCAG (site TAGGCGTCTCT)”, the “recombinant barcode read abundance (log10)” value amounted to 0.0752.

In the case of “TAGCGGACTTGGGTTCTAACCTGTTGCCT (site TAGCAGACTAG)”, the “recombinant barcode read abundance (log10)” value worked out at 0.106.

Regarding “TAGCGGACTTGGGTTCTAACCTGTTGCCT (site TAGCCGACTAG)”, the “recombinant barcode read abundance (log10)” value amounted to 0.

With “TAGCGGACTTGGGTTCTAACCTGTTGCCT (site TAGCGGACTAG)”, the “recombinant barcode read abundance (log10)” value came to 1.28.

“TAGCGGACTTGGGTTCTAACCTGTTGCCT (site TAGCTGACTAG)”: the “recombinant barcode read abundance (log10)” value is 0.0737.

Consider “TAGCGTCCTTGGGTTCTAACCTGTTGCAC (site TAGCGTCCTGT)”, for which the “recombinant barcode read abundance (log10)” value was determined as 1.11.

As for “TAGCGTCCTTGGGTTCTAACCTGTTGCAC (site TCGCGTCCTTT)”, the “recombinant barcode read abundance (log10)” value amounted to 0.157.

For “TAGCTCCCTTGGGTTCTAACCTGTTGCCA (site TAGCTCCCTAG)”, the “recombinant barcode read abundance (log10)” value is 0.676.
